Reference: US20140323500A1, “NADPH OXIDASE 4 INHIBITORS AND USE THEREOF” (GENKYOTEX SA, priority 2011, published 2014)

biological target: T1, human Nox4 (Homo sapiens, UniProt Q9NPH5); assay: ROS production by membranes expressing human Nox4, cell-free Amplex Red assay; type: biochemical; details: cell-free membranes, Amplex Red; Cheng-Prusoff; average of at least three experiments in triplicate; read-out: Ki hNox4
T1 construct: expressed in transfected cells; host or cells: T-REx-293 (hNOX4 T-REx-293), tetracycline-induced; membrane fraction
T1 sequence (Q9NPH5 1-578): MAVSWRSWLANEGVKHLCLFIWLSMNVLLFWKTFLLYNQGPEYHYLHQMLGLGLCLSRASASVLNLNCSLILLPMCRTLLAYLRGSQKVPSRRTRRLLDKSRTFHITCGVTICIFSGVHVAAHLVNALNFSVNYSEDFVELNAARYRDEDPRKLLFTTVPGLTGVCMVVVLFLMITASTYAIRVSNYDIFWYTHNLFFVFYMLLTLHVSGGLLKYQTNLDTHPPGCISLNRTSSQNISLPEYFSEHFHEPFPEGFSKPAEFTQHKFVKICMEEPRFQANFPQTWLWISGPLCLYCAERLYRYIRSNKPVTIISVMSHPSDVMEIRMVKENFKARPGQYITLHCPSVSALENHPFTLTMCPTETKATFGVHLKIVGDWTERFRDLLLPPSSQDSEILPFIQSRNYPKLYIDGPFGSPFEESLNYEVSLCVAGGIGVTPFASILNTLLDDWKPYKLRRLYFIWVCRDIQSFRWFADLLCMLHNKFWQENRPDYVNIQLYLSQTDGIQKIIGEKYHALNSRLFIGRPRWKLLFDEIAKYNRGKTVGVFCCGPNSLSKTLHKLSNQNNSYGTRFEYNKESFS
T1 sequence (P13498 2-195 partner limits assumed): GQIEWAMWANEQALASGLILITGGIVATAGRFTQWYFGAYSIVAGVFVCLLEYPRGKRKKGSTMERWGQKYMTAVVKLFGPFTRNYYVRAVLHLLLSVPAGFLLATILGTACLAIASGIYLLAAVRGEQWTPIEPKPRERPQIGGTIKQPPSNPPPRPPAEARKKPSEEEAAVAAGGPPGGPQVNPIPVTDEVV
Source text: (§1) The Nox4 activity of Nox4 inhibitors according to the invention may be tested for their activity in the inhibition or reduction of formation of reactive oxygen species (ROS) from oxygen in cell free assays. In order to fully characterise Nox4 inhibitors, Nox subunit-specific cell-free, membrane-based systems have been developed and specific recombinant proteins have been added to membranes heterologously over-expressing their specific iso form. Nox enzymes produce superoxide (O2.−) as primary product, however due to the high instability and reactivity of this molecule which dismutates naturally into hydrogen peroxide (H2O2), therefore, read-out techniques involving probes that do measure H2O2 were used (e.g. using Amplex Red as a probe in order to facilitate consistent and accurate measurements). The activity of the compounds is tested in the following cell free assay using the techniques described here below:
Transfected T-REx™-CHO cells (R718-07) purchased from Invitrogen and T-REx™-293 cell line expressing hNOX4 (hNOX4 T-REx™-293) (Serrander et al., 2007, Biochem. J., 406, 105-114) were cultured in […]. Both media were supplemented with 10% FBS, 2 mM glutamine, penicillin (100 U/ml) and streptomycin (100 μg/ml). Selection pressure was maintained by continuous inclusion of blasticidin (5 μg/ml), and/or G418 (0.25 mg/ml), and/or Hygromycin (0.25 mg/ml) and/or zeocin (0.025 mg/ml).
(§2) Human Nox1, Nox2, Nox4, and Nox5 expression were induced with Tetracycline (1 μg/ml) during 24 h prior to the membrane preparation Membranes from transfected cells overexpressing Nox1, Nox2, Nox4 or Nox5 were prepared as previously described in Palicz et al., 2001, J. Biol. Chem., 76, 3090-3097. After resuspension in sonication buffer (11% sucrose, 120 mM NaCl, 1 mM EGTA in PBS, pH 7.4 for Nox4- or NOX5-expressing cells) or in relax buffer (10 mM Pipes, 3 mM NaCl, 3.5 mM MgCl2, 0.1M KCl, pH 7.4), cells were broken by sonication and centrifuged (200 g, 10 min). The supernatant was layered onto a 17/40% (w/v) discontinuous sucrose gradient and centrifuged (150,000×g for 60 min). Membrane fractions were collected from the 17/40% interface and were stored at −80° C. Protein concentration was determined with the Bradford reagent.
(§3) Reactive Oxygen Species (ROS) production by membranes expressing either human Nox1, or human Nox2 or human Nox4 or human Nox5 or by xanthine/xanthine oxidase were measured using the Amplex Red (AR) method following a slightly modified version of the manufacturer's instruction manual (Invitrogen). Briefly, membranes or xanthine were incubated in PBS with Amplex Red, Horse Radish Peroxidase (HRP) and appropriated co-factors. ROS production was induced by addition of NADPH to NOX-expressing membrane or by addition of xanthine to xanthine oxidase. Non-specific signal was measured in the absence of membranes or in the absence of xanthine.
Antagonist activity of compounds was measured in the presence of increasing concentrations ranging from 1 nM to 100 μM. After an incubation of 20 min in a plate shaker and incubator (Titramax 1000, VWR) at 37° C. with weak agitation (300 rpm), ROS levels were measured for 10 min in a BMG Fluostar microplate reader with excitation and emission wavelengths of 544 nm and 590 nm respectively.
Data were analysed using Prism (GraphPad Software Inc., San Diego, Calif.). Ki values were calculated using the Cheng-Prusoff equation and represent the average of at least three individual experiments performed in triplicate (Table 1). Nox4 inhibition was compared to that measured for Simvastatin (Enzo Life Sciences, CAS Number 79902-63-9) using the method described in Example 1. Reactive Oxygen Species (ROS) production by membranes expressing human Nox4 was measured using the Amplex Red (AR).

Compound	Ki [nM]
COc1ccc(-c2c3c(=O)n(-c4ccccc4Cl)[nH]c3cc(=O)n2Cc2cnccn2)cc1 [(2), 2-(2-chlorophenyl)-4-(4-methoxyphenyl)-5-(pyrazin-2-ylmethyl)-1H-pyrazolo[4,3-c]pyridine-3,6(2H,5H)-dione]	48
COc1ccccc1-n1[nH]c2cc(=O)n(Cc3cnccn3)c(-c3ccc(Cl)cc3)c2c1=O [(3), 4-(4-chlorophenyl)-2-(2-methoxyphenyl)-5-(pyrazin-2-ylmethyl)-1H-pyrazolo[4,3-c]pyridine-3,6(2H,5H)-dione]	57
COc1cccc(-c2c3c(=O)n(-c4ccccc4OC)[nH]c3cc(=O)n2Cc2ccn(C)n2)c1 [(20), 2-(2-methoxyphenyl)-4-(3-methoxyphenyl)-5-[(1-methyl-1H-pyrazol-3-yl)methyl]-1H-pyrazolo[4,3-c]pyridine-3,6(2H,5H)-dione]	94
COc1ccc(-c2c3c(=O)n(-c4ccccc4OC)[nH]c3cc(=O)n2Cc2ccn(C)n2)cc1 [(23), 2-(2-methoxyphenyl)-4-(4-methoxyphenyl)-5-[(1-methyl-1H-pyrazol-3-yl)methyl]-1H-pyrazolo[4,3-c]pyridine-3,6(2H,5H)-dione]	98
COc1ccc(F)c(-c2c3c(=O)n(-c4ccccc4OC)[nH]c3cc(=O)n2Cc2cnccn2)c1 [(41), 4-(2-fluoro-5-methoxyphenyl)-2-(2-methoxyphenyl)-5-(pyrazin-2-ylmethyl)-1H-pyrazolo[4,3-c]pyridine-3,6(2H,5H)-dione]	148
CN(C)c1cccc(-c2c3c(=O)n(-c4ccccc4Cl)[nH]c3cc(=O)n2Cc2ccn(C)n2)c1 [(43), 2-(2-chlorophenyl)-4-[3-(dimethylamino)phenyl]-5-[(1-methyl-1H-pyrazol-3-yl)methyl]-1H-pyrazolo[4,3-c]pyridine-3,6(2H,5H)-dione]	126

Further lines, results first:

Ki [nM]	Compound
79	O=c1c2c(-c3cc(Cl)ccc3F)n(Cc3ccncc3)c(=O)cc2[nH]n1-c1ccccc1Cl [(12), 4-(5-chloro-2-fluorophenyl)-2-(2-chlorophenyl)-5-(pyridin-4-ylmethyl)-1H-pyrazolo[4,3-c]pyridine-3,6(2H,5H)-dione]
99	COc1cccc(-c2c3c(=O)n(-c4ccccc4OC)[nH]c3cc(=O)n2Cc2cccnc2)c1 [(24), 2-(2-methoxyphenyl)-4-(3-methoxyphenyl)-5-(pyridin-3-ylmethyl)-1H-pyrazolo[4,3-c]pyridine-3,6(2H,5H)-dione]
109	O=c1c2c(-c3c(F)cccc3F)n(Cc3ccncc3)c(=O)cc2[nH]n1-c1ccccc1Cl [(28), 2-(2-chlorophenyl)-4-(2,6-difluorophenyl)-5-(pyridin-4-ylmethyl)-1H-pyrazolo[4,3-c]pyridine-3,6(2H,5H)-dione]
112	O=c1c2c(-c3cccc(Cl)c3F)n(Cc3ccncc3)c(=O)cc2[nH]n1-c1ccccc1Cl [(31), 4-(3-chloro-2-fluorophenyl)-2-(2-chlorophenyl)-5-(pyridin-4-ylmethyl)-1H-pyrazolo[4,3-c]pyridine-3,6(2H,5H)-dione]
115	COc1ccc(-c2c3c(=O)n(-c4ccccc4OC)[nH]c3cc(=O)n2Cc2cccnc2)cc1 [(33), 2-(2-methoxyphenyl)-4-(4-methoxyphenyl)-5-(pyridin-3-ylmethyl)-1H-pyrazolo[4,3-c]pyridine-3,6(2H,5H)-dione]
129	O=c1c2c(-c3cccc(Cl)c3F)n(Cc3cccnc3)c(=O)cc2[nH]n1-c1ccccc1Cl [(38), 4-(3-chloro-2-fluorophenyl)-2-(2-chlorophenyl)-5-(pyridin-3-ylmethyl)-1H-pyrazolo[4,3-c]pyridine-3,6(2H,5H)-dione]
148	O=c1c2c(-c3c(F)cccc3F)n(Cc3cccnc3)c(=O)cc2[nH]n1-c1ccccc1Cl [(40), 2-(2-chlorophenyl)-4-(2,6-difluorophenyl)-5-(pyridin-3-ylmethyl)-1H-pyrazolo[4,3-c]pyridine-3,6(2H,5H)-dione]

biological target: T2, human Nox2 (Homo sapiens, UniProt P04839); assay: ROS production by membranes expressing human Nox2, cell-free Amplex Red assay; type: biochemical; details: cell-free membranes, Amplex Red; Cheng-Prusoff; average of at least three experiments in triplicate; read-out: Ki hNox2
T2 construct: host or cells: T-REx-CHO (hNOX2 T-REx-CHO), tetracycline-induced; membrane fraction
T2 sequence (P04839 2-570 limits assumed): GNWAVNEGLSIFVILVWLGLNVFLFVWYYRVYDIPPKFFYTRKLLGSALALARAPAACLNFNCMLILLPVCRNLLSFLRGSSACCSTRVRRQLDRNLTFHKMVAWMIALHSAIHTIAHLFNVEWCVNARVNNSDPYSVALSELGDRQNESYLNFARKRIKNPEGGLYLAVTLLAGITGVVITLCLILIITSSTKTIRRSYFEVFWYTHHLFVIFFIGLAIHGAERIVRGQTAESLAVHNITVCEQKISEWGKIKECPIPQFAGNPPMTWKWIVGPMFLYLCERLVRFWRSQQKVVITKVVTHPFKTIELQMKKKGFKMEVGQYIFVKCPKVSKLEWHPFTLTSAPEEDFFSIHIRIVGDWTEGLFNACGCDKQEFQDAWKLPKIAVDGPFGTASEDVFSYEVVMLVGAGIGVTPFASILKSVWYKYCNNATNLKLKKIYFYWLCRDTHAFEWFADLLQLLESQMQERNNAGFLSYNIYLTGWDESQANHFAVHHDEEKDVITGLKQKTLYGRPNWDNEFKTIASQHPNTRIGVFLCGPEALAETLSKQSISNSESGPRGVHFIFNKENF
T2 sequence (P13498 2-195 partner limits assumed): T1 sequence (P13498 2-195 partner limits assumed)
Source text: as §1
Human Nox1 (NM_007052.4), human NOX2 (NM_000397), and human NOX5 (NM_0245052244) cDNAs were cloned into the pcDNA5/TO (Invitrogen). Human p22 (NM_000101.2) was cloned into pcDNA3.1/Zeo (+) (Invitrogen), and human NOXA1 (AY255769.1) and human NOXO1 (AB097667) were cloned into the bi-cistronic pVITRO1-neo-mcs plasmid (Invivogen).
Cells were transfected by using the FuGENE 6 method. Cells stably expressing functional human Nox1 (hNOX1 T-REx™-CHO) were obtained by co-transfecting T-REx™-CHO cells with human Nox1, human p22, human NOXA1 and human NOXO1. Cells stably expressing functional human Nox2 (hNOX2 T-REx™-CHO) were obtained by co-transfecting T-REx™-CHO cells with human nox2, human p22 and human cofactors. Cells stably expressing functional human Nox5 (hNOX5 T-REx™-CHO) were obtained by transfecting T-REx™-CHO cells with human Nox5. Co-transfected cells were selected with the appropriate antibiotics for 10 days. For the selection, hygromycin and G418 were used at 2 mg/ml and zeocin at 0.1 mg/ml. For the establishment of each stably transfected cell line, a pool of antibiotic-resistant cells was generated. Cells were cloned by limiting dilution. Several clones were established and investigated for ROS production upon tetracycline-induced hNox expression using a cellular AR assay. The expression of NOXes was done with tetracycline (1 μg/ml) during 24 h prior to the assay.
as §2, §3
Antagonist activity of compounds was measured in the presence of increasing concentrations ranging from 1 nM to 100 μM. […]

Ki [nM]	Compound
670	COc1ccc(-c2c3c(=O)n(-c4ccccc4Cl)[nH]c3cc(=O)n2Cc2cnccn2)cc1 [(2), 2-(2-chlorophenyl)-4-(4-methoxyphenyl)-5-(pyrazin-2-ylmethyl)-1H-pyrazolo[4,3-c]pyridine-3,6(2H,5H)-dione]
735	COc1ccccc1-n1[nH]c2cc(=O)n(Cc3cnccn3)c(-c3ccc(Cl)cc3)c2c1=O [(3), 4-(4-chlorophenyl)-2-(2-methoxyphenyl)-5-(pyrazin-2-ylmethyl)-1H-pyrazolo[4,3-c]pyridine-3,6(2H,5H)-dione]
